Test results reported in patent US12447146B2, “Topical composition comprising tacrolimus” (MC2 Therapeutics Limited, priority 2016, dated 2025).

Assay: Solubility of tacrolimus in oil solvents measured by HPLC
Format: physicochemical
Procedure: In this Example, the solubility of tacrolimus in various oil solvents was measured by HPLC.
Approximately 40 mg of tacrolimus was weighed and a known quantity (1-2 g) of oil was added and stirred for 5 hours at room temperature. […] If the tacrolimus appeared to be fully dissolved in under 10 g of oil the sample was then placed at 4° C. overnight. If the tacrolimus precipitated out after cold storage further oil was added and the above steps were repeated until dissolved or the 10 g of oil had been added. All samples were then centrifuged to ensure any non-dissolved tacrolimus was removed and the supernatant analysed by HPLC as described in Example 1.

C=CC[C@@H]1/C=C(\C)C[C@H](C)C[C@H](OC)[C@H]2O[C@@](O)(C(=O)C(=O)N3CCCC[C@H]3C(=O)O[C@H](/C(C)=C/[C@@H]3CC[C@@H](O)[C@H](OC)C3)[C@H](C)[C@@H](O)CC1=O)[C@H](C)C[C@@H]2OC [tacrolimus]
Solubility (% wt) (tacrolimus in Capric caprylic trigylcerides): 0.44 % wt | Solubility (% wt) (tacrolimus in Castor oil): 1.44 % wt | Solubility (% wt) (tacrolimus in Cyclomethicone): 0.004 % wt | Solubility (% wt) (tacrolimus in Dibutyl adipate, room temperature, then 4° C. overnight, *assay within 95% of theoretical maximum, likely solubility greater than stated): 3.24* % wt | Solubility (% wt) (tacrolimus in Diethyl sebacate, room temperature, then 4° C. overnight, *assay within 95% of theoretical maximum, likely solubility greater than stated): 3.26* % wt | Solubility (% wt) (tacrolimus in Diisopropyl adipate, room temperature, then 4° C. overnight, *assay within 95% of theoretical maximum, likely solubility greater than stated): 3.08* % wt | Solubility (% wt) (tacrolimus in Dimethicone): 0.004 % wt | Solubility (% wt) (tacrolimus in Heptylmethylnonane): 0.006 % wt | Solubility (% wt) (tacrolimus in Isopropyl isostearate): 0.19 % wt | Solubility (% wt) (tacrolimus in Isopropyl myristate): 0.25 % wt | Solubility (% wt) (tacrolimus in Isopropyl palmitate): 0.26 % wt | Solubility (% wt) (tacrolimus in Mineral oil): 0.003 % wt
